Results published in US6706663B2, “Herbicidal 3-heterocyclic substituted benzisothiazole and benzisoxazole compounds” (Wyeth, priority 2000, dated 2004).

How the values were obtained:
SETVI (Setaria viridis) [1] = experiment: Postemergence herbicidal evaluation; assay type: in vivo, (L.) Beau; settings: postemergence
Outline: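 Ratings use a 0-9 visual scale covering stand, vigor, malformation, size, chlorosis and appearance versus a control, scored 4-5 weeks post-spray. Roughly two-week-old seedlings received about 0.0040-1.000 kg/ha active, applied in 50/50 acetone/water with 0.5% TWEEN 20. Multiple tests per compound were averaged.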

GLXMA (Soybean) = experiment: Postemergence herbicidal evaluation; assay type: in vivo, Glycine max, (L.) Merr.; settings: postemergence
Method: In the tests, seedling plants are grown in jiffy flats for about two weeks. The test compounds are dispersed in 50/50 acetone/water mixtures containing 0.5% TWEEN® 20, a polyoxyethylene sorbitan monolaurate surfactant of Atlas Chemical Industries, in sufficient quantities to provide the equivalent of about 0.0040 kg to 1.000 kg per hectare of active compound when applied to the plants through a spray nozzle operating at 40 psi for a predetermined time. After spraying, the plants are placed on greenhouse benches and are cared for in accordance with conventional greenhouse procedures. From four to five weeks after treatment, the seedling plants are examined and rated according to the rating system set forth below. Where more than one test is involved for a given compound, the data are averaged.
(§1) Results of herbicide evaluation are expressed on a rating scale (0-9). The scale is based upon a visual observation of plant stand, vigor, malformation, size, chlorosis and overall plant appearance as compared with a control.

[2] = test system: ABUTH (Abutilon theophrasti); experiment: Postemergence herbicidal evaluation; assay type: in vivo, Medic.; settings: postemergence
Outline: (§2)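 Visual 0–9 injury scores versus control plants, covering stand, vigour, malformation, size, chlorosis and general appearance, taken four to five weeks post-spray and averaged over replicate tests. Plants were sprayed at roughly two weeks old and held on greenhouse benches.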

[3] = test system: IPOHE (Ipomoea hederacea); experiment: Postemergence herbicidal evaluation; assay type: in vivo, (L.) Jacq.; settings: postemergence
Outline: as §2

[4] = test system: AMBEL (Ambrosia artemisifolia); experiment: Postemergence herbicidal evaluation; assay type: in vivo, L.; settings: postemergence
Outline: as §2

[5] = test system: CHEAL (Chenopodium album); experiment: Postemergence herbicidal evaluation; assay type: in vivo, L.; settings: postemergence
Outline: as §2

ZEAMX (Corn, Field) [6] = experiment: Postemergence herbicidal evaluation; assay type: in vivo, Zea mays, L.; settings: postemergence
Outline: as §2

[7] = test system: ECHCG (Echinochloa crus-galli); experiment: Postemergence herbicidal evaluation; assay type: in vivo, (L.) Beau; settings: postemergence
Outline: as §2

ZEAMX (Corn, Field) [8] = experiment: Preemergence herbicidal evaluation; assay type: in vivo, Zea mays, L.; settings: preemergence, rate 1.0000 kg/ha, rated 4-5 weeks after treatment
[9] = test system: ABUTH (Abutilon theophrasti); experiment: Preemergence herbicidal evaluation; assay type: in vivo, Medic.; settings: preemergence, rate 1.0000 kg/ha, rated 4-5 weeks after treatment
IPOSS (Ipomoea Spp.) = experiment: Preemergence herbicidal evaluation; assay type: in vivo; settings: rate 1.0000 kg/ha, rated 4-5 weeks after treatment
Text: as §1
The preemergence herbicidal activity of the test compounds of the present invention is exemplified by the following tests in which the seeds of a variety of monocotyledonous and dicotyledonous plants are separately mixed with potting soil and planted on top of approximately one inch of soil in separate pint cups. After planting, the cups are sprayed with the selected aqueous acetone solution containing test compound in sufficient quantity to provide the equivalent of about […] per hectare of test compound per cup. The treated cups are then placed on greenhouse benches, watered and cared for in accordance with conventional greenhouse procedures. From four to five weeks after treatment, the tests are terminated and each cup is examined and rated according to the rating system provided in Example 87. The plant species used and the compounds evaluated are the same as those shown in Example 87.

ORYSAT (Rice, Tebonnet) = experiment: Preemergence herbicidal evaluation; assay type: in vivo, Oryza sativa, (L.) Tebonnet; settings: preemergence, rate 1.0000 kg/ha, rated 4-5 weeks after treatment
[10] = test system: ECHCG (Echinochloa crus-galli); experiment: Preemergence herbicidal evaluation; assay type: in vivo, (L.) Beau; settings: preemergence, rate 1.0000 kg/ha, rated 4-5 weeks after treatment
Outline: (§3)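 Preemergence soil spray, aq. acetone; greenhouse; visual 0–9 score vs control at 4–5 wk.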

SETVI (Setaria viridis) [11] = experiment: Preemergence herbicidal evaluation; assay type: in vivo, (L.) Beau; settings: preemergence, rate 1.0000 kg/ha, rated 4-5 weeks after treatment
Outline: as §3

[12] = test system: GLXMAW (Soybean, Williams); experiment: Preemergence herbicidal evaluation; assay type: in vivo, Glycine max, (L.) Merr. cv Williams; settings: preemergence, rate 1.0000 kg/ha, rated 4-5 weeks after treatment
GALAP (Galium aparine) = experiment: Preemergence herbicidal evaluation; assay type: in vivo; settings: preemergence, rate 1.0000 kg/ha, rated 4-5 weeks after treatment
Outline: as §3

[13] = test system: TRZAWR (Wheat, Winter, cv Riband); experiment: Preemergence herbicidal evaluation; assay type: in vivo, Triticum aestivum; settings: preemergence, rate 1.0000 kg/ha, rated 4-5 weeks after treatment
Outline: as §3

[14] = test system: AMBEL (Ambrosia artemisifolia); experiment: Preemergence herbicidal evaluation; assay type: in vivo, L.; settings: preemergence, rate 1.0000 kg/ha, rated 4-5 weeks after treatment
Outline: as §3

[15] = test system: CHEAL (Chenopodium album); experiment: Preemergence herbicidal evaluation; assay type: in vivo, L.; settings: preemergence, rate 1.0000 kg/ha, rated 4-5 weeks after treatment
Outline: as §3

SMILES	SETVI herbicidal rating (SETVI (Setaria viridis) [1]; rate 0.0320 kg/ha)	SETVI herbicidal rating (SETVI (Setaria viridis) [1]; rate 0.0620 kg/ha)	GLXMA herbicidal rating (GLXMA (Soybean); rate 0.0320 kg/ha)	GLXMA herbicidal rating (GLXMA (Soybean); rate 0.0620 kg/ha)	ABUTH herbicidal rating ([2]; rate 0.0320 kg/ha)	ABUTH herbicidal rating ([2]; rate 0.0620 kg/ha)	IPOHE herbicidal rating ([3]; rate 0.0320 kg/ha)	IPOHE herbicidal rating ([3]; rate 0.0620 kg/ha)	AMBEL herbicidal rating ([4]; rate 0.0320 kg/ha)	AMBEL herbicidal rating ([4]; rate 0.0620 kg/ha)	CHEAL herbicidal rating ([5]; rate 0.0320 kg/ha)	CHEAL herbicidal rating ([5]; rate 0.0620 kg/ha)	ZEAMX herbicidal rating (ZEAMX (Corn, Field) [6]; rate 0.0320 kg/ha)	ZEAMX herbicidal rating (ZEAMX (Corn, Field) [6]; rate 0.0620 kg/ha)	ECHCG herbicidal rating ([7]; rate 0.0320 kg/ha)	ECHCG herbicidal rating ([7]; rate 0.0620 kg/ha)	further results
Cn1c(C(F)(F)F)cc(=O)n(-c2ccc3snc(C4(O)N=C(C(C)(C)C)NC4=O)c3c2)c1=O (stereo not shown) [Compound 95, 3-[3-(2-tert-butyl-4-hydroxy-5-oxo-2-imidazolin-4-yl)-1,2-benzisothiazol-5-yl]-1-methyl-6-(trifluoromethyl)uracil]	4.0	7.0	8.0	8.0	9.0	9.0	8.0	9.0	4.0	8.0	8.0	9.0	3.5	3.5	2.0	3.0	–
CCN=C1NC(=O)C(OC)(c2nsc3ccc(-n4c(=O)cc(C(F)(F)F)n(C)c4=O)cc23)N1 (stereo not shown) [Compound 98, 3-[3[4-methoxy-2-(ethylimino)-5-oxo-4-imidazolidinyl]-1,2-benzisothiazol-5-yl]-1-methyl-6-(trifluoromethyl)uracil]	3.0	3.0	8.0	8.0	9.0	9.0	9.0	8.0	8.0	8.0	6.0	8.0	3.5	3.5	2.0	2.0	–
Cn1c(C(F)(F)F)cc(=O)n(-c2ccc3snc(C4(O)N=C(c5ccccc5)NC4=O)c3c2)c1=O (stereo not shown) [Compound 94, 3-[3-(4-hydroxy-5-oxo-2-phenyl-2-imidazolin-4-yl)-1,2-benzisothiazol-5-yl]-1-methyl-6-(trifluoromethyl)uracil]	–	–	–	–	–	–	–	–	–	–	–	–	–	–	–	–	Preemergence herbicidal rating ZEAMX (ZEAMX (Corn, Field) [8]): 3.0; Preemergence herbicidal rating ABUTH [9]: 7.0; Preemergence herbicidal rating IPOSS (IPOSS (Ipomoea Spp.)): 7.0; Preemergence herbicidal rating ORYSAT (ORYSAT (Rice, Tebonnet)): 6.0; Preemergence herbicidal rating ECHCG [10]: 2.0; Preemergence herbicidal rating SETVI (SETVI (Setaria viridis) [11]): 5.0; Preemergence herbicidal rating GLXMAW [12]: 5.0; Preemergence herbicidal rating GALAP (GALAP (Galium aparine)): 8.0; Preemergence herbicidal rating TRZAWR [13]: 5.0; Preemergence herbicidal rating AMBEL [14]: 5.0; Preemergence herbicidal rating CHEAL [15]: 8.0
